Molecules are shown by their SMILES.

This experiment deals with A549. The experiment is described as follows: Antiproliferative activity against human A549 cells assessed as inhibition of cell growth at 1.5 uM incubated for 48 hrs by MTT assay relative to control. The settings on record: A549, 48 h, read-out: GI. In kind it is functional. In general terms: Formazan colour is commonly taken as a measure of viable cells.
Take `CC1=C(O)C(=O)C=C2C1=CC=C1[C@@]2(C)CC[C@@]2(C)[C@@H]3C[C@](C)(C(=O)OCCOC(=O)/C=C/c4ccc(C)cc4)CC[C@]3(C)CC[C@]12C`: the inhibition of growth at 1.5 µM amounted to 28.6%.

As for `COc1ccc(/C=C/C(=O)OCCCOC(=O)[C@]2(C)CC[C@]3(C)CC[C@]4(C)C5=CC=C6C(=CC(=O)C(O)=C6C)[C@]5(C)CC[C@@]4(C)[C@@H]3C2)cc1`, the inhibition of growth at 1.5 µM was 34.1%. For `COc1ccc(/C=C(\C#N)C(=O)OCCCCOC(=O)[C@]2(C)CC[C@]3(C)CC[C@]4(C)C5=CC=C6C(=CC(=O)C(O)=C6C)[C@]5(C)CC[C@@]4(C)[C@@H]3C2)cc1` the value was 3.07%; for `COc1ccc(/C=C(\C#N)C(=O)OCCCOC(=O)[C@]2(C)CC[C@]3(C)CC[C@]4(C)C5=CC=C6C(=CC(=O)C(O)=C6C)[C@]5(C)CC[C@@]4(C)[C@@H]3C2)cc1`, 18.6%.

Consider `CC1=C(O)C(=O)C=C2C1=CC=C1[C@@]2(C)CC[C@@]2(C)[C@@H]3C[C@](C)(C(=O)OCCCCOC(=O)/C=C/c4ccccc4)CC[C@]3(C)CC[C@]12C`, for which the inhibition of growth at 1.5 µM came to 13.3%. Consider `CC1=C(O)C(=O)C=C2C1=CC=C1[C@@]2(C)CC[C@@]2(C)[C@@H]3C[C@](C)(C(=O)OCCOC(=O)/C(C#N)=C/c4ccccc4)CC[C@]3(C)CC[C@]12C`, for which the inhibition of growth at 1.5 µM is 24.3%. With `CC1=C(O)C(=O)C=C2C1=CC=C1[C@@]2(C)CC[C@@]2(C)[C@@H]3C[C@](C)(C(=O)OCCCCOC(=O)/C=C(\C#N)c4ccccc4)CC[C@]3(C)CC[C@]12C`, the inhibition of growth at 1.5 µM worked out at 3.19%.

With `CC1=C(O)C(=O)C=C2C1=CC=C1[C@@]2(C)CC[C@@]2(C)[C@@H]3C[C@](C)(C(=O)OCCCOC(=O)/C=C(\C#N)c4ccc(C)cc4)CC[C@]3(C)CC[C@]12C`, the inhibition of growth at 1.5 µM came to 21.6%. As for `CC1=C(O)C(=O)C=C2C1=CC=C1[C@@]2(C)CC[C@@]2(C)[C@@H]3C[C@](C)(C(=O)OCCCCOC(=O)/C(C#N)=C/c4ccccc4)CC[C@]3(C)CC[C@]12C`, the inhibition of growth at 1.5 µM was found to be 16.2%.

Turning to `CC1=C(O)C(=O)C=C2C1=CC=C1[C@@]2(C)CC[C@@]2(C)[C@@H]3C[C@](C)(C(=O)OCCCOC(=O)/C(C#N)=C/c4ccc(C)cc4)CC[C@]3(C)CC[C@]12C`, the inhibition of growth at 1.5 µM amounted to 34.7%. Take `CC1=C(O)C(=O)C=C2C1=CC=C1[C@@]2(C)CC[C@@]2(C)[C@@H]3C[C@](C)(C(=O)OCCCOC(=O)/C=C/c4ccc(C)cc4)CC[C@]3(C)CC[C@]12C`: the inhibition of growth at 1.5 µM is 29.1%. For `CC1=C(O)C(=O)C=C2C1=CC=C1[C@@]2(C)CC[C@@]2(C)[C@@H]3C[C@](C)(C(=O)OCCCOC(=O)/C=C/c4ccc(C(F)(F)F)cc4)CC[C@]3(C)CC[C@]12C` the value was 37.6%; for `CC1=C(O)C(=O)C=C2C1=CC=C1[C@@]2(C)CC[C@@]2(C)[C@@H]3C[C@](C)(C(=O)OCCCOC(=O)/C(C#N)=C/c4ccc(C(F)(F)F)cc4)CC[C@]3(C)CC[C@]12C`, 19.4%. For `CC1=C(O)C(=O)C=C2C1=CC=C1[C@@]2(C)CC[C@@]2(C)[C@@H]3C[C@](C)(C(=O)OCCOC(=O)/C=C/c4ccccc4)CC[C@]3(C)CC[C@]12C`, the inhibition of growth at 1.5 µM was 23%.

In the case of `CC1=C(O)C(=O)C=C2C1=CC=C1[C@@]2(C)CC[C@@]2(C)[C@@H]3C[C@](C)(C(=O)OCCOC(=O)/C(C#N)=C/c4ccc(C(F)(F)F)cc4)CC[C@]3(C)CC[C@]12C`, the inhibition of growth at 1.5 µM came out at 16%. `CC1=C(O)C(=O)C=C2C1=CC=C1[C@@]2(C)CC[C@@]2(C)[C@@H]3C[C@](C)(C(=O)OCCOC(=O)/C(C#N)=C/c4ccc(F)cc4)CC[C@]3(C)CC[C@]12C`: the inhibition of growth at 1.5 µM amounted to 26.1%.

Turning to `CC1=C(O)C(=O)C=C2C1=CC=C1[C@@]2(C)CC[C@@]2(C)[C@@H]3C[C@](C)(C(=O)OCCCCOC(=O)/C=C/c4ccc(C)cc4)CC[C@]3(C)CC[C@]12C`, the inhibition of growth at 1.5 µM came to 19.9%. Regarding `CC1=C(O)C(=O)C=C2C1=CC=C1[C@@]2(C)CC[C@@]2(C)[C@@H]3C[C@](C)(C(=O)OCCCOC(=O)/C=C/c4ccccc4)CC[C@]3(C)CC[C@]12C`, the inhibition of growth at 1.5 µM amounted to 33.2%. For `CC1=C(O)C(=O)C=C2C1=CC=C1[C@@]2(C)CC[C@@]2(C)[C@@H]3C[C@](C)(C(=O)OCCCCOC(=O)/C=C/c4ccc(C(F)(F)F)cc4)CC[C@]3(C)CC[C@]12C` the value was 6.19%; for `CC1=C(O)C(=O)C=C2C1=CC=C1[C@@]2(C)CC[C@@]2(C)[C@@H]3C[C@](C)(C(=O)OCCCOC(=O)/C=C(\C#N)c4ccc(C(F)(F)F)cc4)CC[C@]3(C)CC[C@]12C`, 24.5%; for `CC1=C(O)C(=O)C=C2C1=CC=C1[C@@]2(C)CC[C@@]2(C)[C@@H]3C[C@](C)(C(=O)OCCOC(=O)/C=C/c4ccc(F)cc4)CC[C@]3(C)CC[C@]12C`, 27.7%.

On to `COc1ccc(/C=C(\C#N)C(=O)OCCOC(=O)[C@]2(C)CC[C@]3(C)CC[C@]4(C)C5=CC=C6C(=CC(=O)C(O)=C6C)[C@]5(C)CC[C@@]4(C)[C@@H]3C2)cc1`, for which the inhibition of growth at 1.5 µM came out at 16.6%. With `CC1=C(O)C(=O)C=C2C1=CC=C1[C@@]2(C)CC[C@@]2(C)[C@@H]3C[C@](C)(C(=O)OCCOC(=O)/C=C(\C#N)c4ccc(C)cc4)CC[C@]3(C)CC[C@]12C`, the inhibition of growth at 1.5 µM was determined as 20.4%. The result for `CC1=C(O)C(=O)C=C2C1=CC=C1[C@@]2(C)CC[C@@]2(C)[C@@H]3C[C@](C)(C(=O)OCCOC(=O)/C(C#N)=C/c4ccc(C)cc4)CC[C@]3(C)CC[C@]12C` reads 29.9%; that for `CC1=C(O)C(=O)C=C2C1=CC=C1[C@@]2(C)CC[C@@]2(C)[C@@H]3C[C@](C)(C(=O)OCCCCOC(=O)/C=C(\C#N)c4ccc(C(F)(F)F)cc4)CC[C@]3(C)CC[C@]12C`, 18.3%. Regarding `COc1ccc(/C=C/C(=O)OCCOC(=O)[C@]2(C)CC[C@]3(C)CC[C@]4(C)C5=CC=C6C(=CC(=O)C(O)=C6C)[C@]5(C)CC[C@@]4(C)[C@@H]3C2)cc1`, the inhibition of growth at 1.5 µM turned out to be 35.3%. On to `CC1=C(O)C(=O)C=C2C1=CC=C1[C@@]2(C)CC[C@@]2(C)[C@@H]3C[C@](C)(C(=O)OCCOC(=O)/C=C(\C#N)c4ccc(C(F)(F)F)cc4)CC[C@]3(C)CC[C@]12C`, for which the inhibition of growth at 1.5 µM was 33.3%. Consider `CC1=C(O)C(=O)C=C2C1=CC=C1[C@@]2(C)CC[C@@]2(C)[C@@H]3C[C@](C)(C(=O)OCCCCOC(=O)/C=C(\C#N)c4ccc(C)cc4)CC[C@]3(C)CC[C@]12C`, for which the inhibition of growth at 1.5 µM came out at 9.74%. In the case of `CC1=C(O)C(=O)C=C2C1=CC=C1[C@@]2(C)CC[C@@]2(C)[C@@H]3C[C@](C)(C(=O)OCCCCOC(=O)/C(C#N)=C/c4ccc(C)cc4)CC[C@]3(C)CC[C@]12C`, the inhibition of growth at 1.5 µM was found to be 16.5%. In the case of `CC1=C(O)C(=O)C=C2C1=CC=C1[C@@]2(C)CC[C@@]2(C)[C@@H]3C[C@](C)(C(=O)OCCCCOC(=O)/C=C(\C#N)c4ccc(F)cc4)CC[C@]3(C)CC[C@]12C`, the inhibition of growth at 1.5 µM stood at 32.1%.

As to `COc1ccc(/C(C#N)=C/C(=O)OCCCCOC(=O)[C@]2(C)CC[C@]3(C)CC[C@]4(C)C5=CC=C6C(=CC(=O)C(O)=C6C)[C@]5(C)CC[C@@]4(C)[C@@H]3C2)cc1`, the inhibition of growth at 1.5 µM was found to be 9.57%. Consider `CC1=C(O)C(=O)C=C2C1=CC=C1[C@@]2(C)CC[C@@]2(C)[C@@H]3C[C@](C)(C(=O)OCCCOC(=O)/C=C/c4ccc(F)cc4)CC[C@]3(C)CC[C@]12C`, for which the inhibition of growth at 1.5 µM came to 37.6%.

The values are drawn from ChEMBL document CHEMBL4376838, “Discovery of Novel Celastrol Derivatives as Hsp90-Cdc37 Interaction Disruptors with Antitumor Activity” (J Med Chem, 2019).
